Values joined by “and” are separate entries in the source; they are usually repeats but may differ in a detail not shown here. Equal values may be shown once.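 Cells were grown in 96-well plates and exposed to each compound for 48 hours at five concentrations; endpoints were interpolated linearly between bracketing concentrations, or set to the highest concentration if not reached. GI50 = concentration required for 50% inhibition of growth. TGI: concentration producing complete growth inhibition.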
Tests used:
Experiment in all cases: NCI tumour cell line growth inhibition, 48 h
COLO 205 colon = tested on: COLO 205 colon
HCC-2998 colon = tested on: HCC-2998 colon
HS 578T breast = tested on: HS 578T breast
K-562 leukemia = tested on: K-562 leukemia
M14 melanoma = tested on: M14 melanoma
MDA-MB-231 breast = tested on: MDA-MB-231 breast
NCI-H460 lung = tested on: NCI-H460 lung
OVCAR-3 ovarian = tested on: OVCAR-3 ovarian
PC-3 prostate = tested on: PC-3 prostate
SF-268 CNS = tested on: SF-268 CNS

| SMILES | TGI (COLO 205 colon) | TGI (HCC-2998 colon) [µM] | TGI (HS 578T breast) [µM] | TGI (K-562 leukemia) | TGI (M14 melanoma) | TGI (MDA-MB-231 breast) | TGI (NCI-H460 lung) | TGI (OVCAR-3 ovarian) | TGI (PC-3 prostate) | TGI (SF-268 CNS) | GI50 (COLO 205 colon) [µM] | GI50 (HCC-2998 colon) [µM] | GI50 (K-562 leukemia) [µM] | GI50 (M14 melanoma) [µM] | GI50 (MDA-MB-231 breast) [µM] | GI50 (PC-3 prostate) [µM] | GI50 (SF-268 CNS) [µM] |
| --- | --- | --- | --- | --- | --- | --- | --- | --- | --- | --- | --- | --- | --- | --- | --- | --- | --- |
| CC1CCc2sc3[nH]c(=S)n(C)c(=O)c3c2C1 (configuration not stated) | > 100 µM | 82.5 | > 100 | > 100 µM | 99.6 µM | > 100 µM | > 100 µM | 62.4 µM | 72 µM | > 100 µM | – | – | – | – | – | – | – |
| Cc1nn(C(=O)c2ccccc2O)c2c1C(c1ccc([N+](=O)[O-])cc1)SC(N)=N2 (configuration not stated) | > 10 µM | > 10 | > 10 | > 10 µM | > 10 µM | > 10 µM | > 10 µM | 9.95 µM | > 10 µM | > 10 µM | – | – | – | – | – | – | – |
| CC(C)(C)C#CI1OC(=O)c2ccccc21 | 4.65 µM | 23.6 | > 92.3 | 11.7 µM | 15.3 µM | 34 µM | 11.9 µM | 8.84 µM | 19.5 µM | 14.3 µM | – | – | – | – | – | – | – |
| Cn1c2ccccc2c2c3c(=O)[nH][nH]c(=O)c3c3c4ccccc4n(C)c3c21 | > 100 µM | > 100 | > 100 | > 100 µM | > 100 µM | > 100 µM | > 100 µM | > 100 µM | > 100 µM | > 100 µM | – | – | – | – | – | – | – |
| COc1ccc2c(c1)CCC(CN1CCN(CCOC(c3ccccc3)c3ccccc3)CC1)C2O (configuration not stated) | 27.7 µM | 16.1 | 41.3 | 44.1 µM | 29.1 µM | 29.7 µM | 35.8 µM | 31.8 µM | 26.3 µM | 31.5 µM | – | – | – | – | – | – | – |
| Clc1sc(Cl)c2c1[C@H](Br)C[C@@H]2Cl | 44.3 µM | > 100 | 49.8 | > 100 µM | 54.5 µM | 51.3 µM | > 100 µM | 64.9 µM | > 100 µM | 49.9 µM | – | – | – | – | – | – | – |
| C[C@@H](CCO)OC1OC(COC(=O)C(C)(C)C)C(OC(=O)C(C)(C)C)C(OC(=O)C(C)(C)C)C1OC(=O)C(C)(C)C (some centres not stated) | > 100 µM | 31.4 | > 100 | > 100 µM | > 100 µM | 25.9 µM | 36.6 µM | > 100 µM | > 100 µM | > 100 µM | – | – | – | – | – | – | – |
| CCC(C)C(NC(=O)C(CCCC[N+](=N)N)NC(=O)C(CCCC[N+](=N)N)NC(=O)c1ccc(OC)cc1)C(=O)NC(CCCC[N+](=N)N)C(=O)N1CCCC1C(=O)NC(CCCCN)C(=O)NC(CC(C)C)C(N)=O (configuration not stated) | > 100 µM | > 100 | > 100 | > 100 µM | > 100 µM | > 100 µM | > 100 µM | > 100 µM | > 100 µM | > 100 µM | – | – | – | – | – | – | – |
| CCOC(=O)C(NC(=O)CC)(Nc1ccccc1F)C(F)(F)F (configuration not stated) | > 100 µM | > 100 | > 100 | > 100 µM | > 100 µM | > 100 µM | > 100 µM | > 100 µM | > 100 µM | > 100 µM | – | – | – | – | – | – | – |
| CC(C)(C)[Si](C)(C)OC1CCOC1(O)c1ccccn1 (configuration not stated) | > 100 µM | > 100 | > 100 | > 100 µM | > 100 µM | > 100 µM | > 100 µM | > 100 µM | > 100 µM | > 100 µM | – | – | – | – | – | – | – |
| O=C(CCl)Nc1ccc(C(=O)N/N=C/c2ccc(Cl)cc2)cc1 | 4.05 µM and 1.44 µM | 22.5 | 6.7 | 4.04 µM and 7.46 µM | 3.42 µM and 18.3 µM | 3.68 µM and 0.417 µM | 3.84 µM and 4.23 µM | 3.42 µM and 3.6 µM | 3.53 µM and 21.9 µM | 3.88 µM and 6.85 µM | 2.01 | 3.85 | 2 | 1.89 | 0.198 | 10.1 | 1.81 |
| Brc1ccc(/C(N=N/C(=N\Sc2ccccc2)c2ccc(Br)cc2)=N/Sc2ccccc2)cc1 | > 100 µM | > 100 | > 100 | > 100 µM | > 100 µM | > 100 µM | > 100 µM | > 100 µM | > 100 µM | > 100 µM | – | – | – | – | – | – | – |
| Brc1ccc2[nH]cc(-c3csc(-c4c[nH]c5ccc(Br)cc45)n3)c2c1 | 3.42 µM | 3.26 | > 20.8 | 3.43 µM | 2.87 µM | 3.38 µM | 3.43 µM | 6.95 µM | 4.44 µM | 6.12 µM | – | – | – | – | – | – | – |
| O=C(O)C12C3C4(C(=O)O)C1C1(C(=O)O)C2C3(C(=O)O)C41 (configuration not stated) | > 100 µM | > 100 | > 100 | > 100 µM | > 100 µM | > 100 µM | > 100 µM | > 100 µM | > 100 µM | > 100 µM | – | – | – | – | – | – | – |
| COc1ccc2c(c1)-c1nc(=S)n(CCN(C)C)c3ccc([N+](=O)[O-])c(c13)N2 | 5.97 µM | 2.15 | 7.69 | 2.13 µM | 7.43 µM | 2.68 µM | 1.71 µM | 19.3 µM | 4.36 µM | 2.16 µM | – | – | – | – | – | – | – |
| O=C(O)CCSc1ncnc2nc[nH]c12 | > 100 µM | > 100 | > 100 | > 100 µM | > 100 µM | > 100 µM | > 100 µM | > 100 µM | > 100 µM | > 100 µM | – | – | – | – | – | – | – |
| CO[C@H](C)[C@](O)(C(=O)OCC1=CCN2CC[C@@H](O)[C@H]12)C(C)C | > 100 µM | > 100 | > 100 | > 100 µM | > 100 µM | > 100 µM | > 100 µM | > 100 µM | > 100 µM | > 100 µM | – | – | – | – | – | – | – |
| O=C1C=CC(=O)c2c(O)c(N3CCN(c4ncccn4)CC3)c(Cl)c(O)c21 | 3.36 µM | 25.7 | 7.12 | 5.07 µM | 3.45 µM | 3.75 µM | > 47.6 µM | 3.16 µM | 8.88 µM | 7.88 µM | – | – | – | – | – | – | – |
| O=C1CCC(CCc2nc3ccccc3[nH]2)(c2ccccc2)C(=O)N1 (configuration not stated) | > 100 µM | > 100 | > 100 | > 100 µM | > 100 µM | > 100 µM | > 100 µM | > 100 µM | > 100 µM | > 100 µM | – | – | – | – | – | – | – |
| CCOC(=O)OC1(c2ccccc2)CCN(C)CC1 | > 100 µM | > 100 | > 100 | > 100 µM | > 100 µM | > 100 µM | > 100 µM | > 100 µM | > 100 µM | > 100 µM | – | – | – | – | – | – | – |
| CC1=[N+]([O-])C2(CCCC2)N(O)C1(C)C | > 100 µM | > 100 | > 100 | > 100 µM | > 100 µM | > 100 µM | > 100 µM | > 100 µM | > 100 µM | > 100 µM | – | – | – | – | – | – | – |
| Cc1nc2ccccc2n1Cc1ccc(NC(=S)Nc2ccccc2)cc1 | > 100 µM | > 100 | > 100 | > 100 µM | > 100 µM | > 100 µM | > 100 µM | > 100 µM | > 100 µM | > 100 µM | – | – | – | – | – | – | – |
